# Results taken from EPA's ToxRefDB 2.
# Columns and labels:
# mouse [1] = conditions: Prenatal developmental toxicity study, cd1, Oral, Gavage/Intubation, dose end: 15 GD
# rat [2] = conditions: Multigenerational reproductive toxicity study, sprague dawley, Oral, Gavage/Intubation, dose end: 2 generation
# rat [3] = conditions: Multigenerational reproductive toxicity study, sprague dawley, Oral, Gavage/Intubation, dose end: 2 generation; remark: listed apart in the source
# rat [4] = conditions: Prenatal developmental toxicity study, fischer, Oral, Gavage/Intubation, dose end: 15 GD
# dog [5] = conditions: Subchronic oral toxicity in nonrodent, beagle, Feed, dose end: 13 week
# mouse [6] = conditions: Carcinogenicity, cd1, Oral, Feed, dose end: 78 week
# rat [7] = conditions: Multigenerational reproductive toxicity study, sprague dawley, Oral, Feed, dose end: 2 generation
# rat [8] = conditions: Subchronic oral toxicity in rodents, fischer, Feed, dose end: 13 week
# rat [9] = conditions: Multigenerational reproductive toxicity study, sprague dawley, Oral, Feed, dose end: 2 generation; remark: listed apart in the source
# rat [10] = conditions: Combined chronic toxicity/carcinogenicity, fischer, Oral, Feed, dose end: 24 month
# rat [11] = conditions: Prenatal developmental toxicity study, sprague dawley, Oral, Gavage/Intubation, dose end: 15 GD
# rat [12] = conditions: Subchronic oral toxicity in rodents, Gavage/Intubation, dose end: 91 day
# rat [13] = conditions: Multigenerational reproductive toxicity study, sprague dawley, Oral, Feed, dose end: 3 generation
# dog [14] = conditions: Chronic toxicity, beagle, Oral, Feed, dose end: 12 month
# [15] = group: developmental, developmental / developmental malformation / general / [other] + systemic / in life observation / body weight / fetal weight
# [16] = group: developmental, systemic / in life observation / body weight / fetal weight
# [17] = group: maternal, reproductive / reproductive performance / resorptions / resorptions + systemic / in life observation / body weight / body weight + systemic…
# [18] = group: offspring, developmental / offspring survival late / viability index / viability index + systemic / in life observation / body weight / offspring (pup…
# [19] = group: offspring, systemic / in life observation / body weight / offspring (pup) weight
# [20] = group: parental, systemic / in life observation / clinical signs / reduced activity
# [21] = group: parental, systemic / in life observation / clinical signs / reduced activity + systemic / organ weight / adrenal gland / relative to body weight + …
# [22] = group: reproductive, reproductive / offspring survival early / litter size / litter size + reproductive / offspring survival early / live fetuses / live fetuses
# [23] = group: reproductive, reproductive / reproductive performance / gestational length / gestational length + reproductive / reproductive performance / pregnancy …
# [24] = group: offspring, systemic / in life observation / body weight / offspring (pup) weight + systemic / in life observation / body weight / offspring (pup) …
# [25] = group: parental, systemic / in life observation / body weight / body weight gain + systemic / in life observation / clinical signs / [other] + systemic / in …
# [26] = group: parental, systemic / in life observation / clinical signs / reduced activity + systemic / in life observation / body weight / body weight gain + …
# [27] = group: reproductive, reproductive / reproductive performance / estrous cycle / length + reproductive / reproductive performance / pregnancy index / pregnancy …
# [28] = group: maternal, systemic / in life observation / clinical signs / hunched posture + systemic / in life observation / clinical signs / lacrimation + systemic…
# [29] = group: cholinesterase, cholinesterase / cholinesterase / cholinesterase / plasma cholinesterase (che)
# [30] = group: cholinesterase, cholinesterase / cholinesterase / cholinesterase / plasma cholinesterase (che) + cholinesterase / cholinesterase / cholinesterase / …
# [31] = group: systemic, systemic / clinical chemistry / albumin / albumin + systemic / clinical chemistry / alkaline phosphatase (alp/alk) / alkaline phosphatase (…
# [32] = group: cholinesterase, cholinesterase / cholinesterase / cholinesterase / brain cholinesterase (che) + cholinesterase / cholinesterase / cholinesterase / …
# [33] = group: systemic, systemic / urinalysis / protein / protein
# [34] = group: cholinesterase, cholinesterase / cholinesterase / cholinesterase / erythrocyte cholinesterase (che) + cholinesterase / cholinesterase / cholinesterase / …
# [35] = group: offspring, developmental / offspring survival late / lactation index / lactation index + systemic / in life observation / body weight / offspring (pup…
# [36] = group: parental, systemic / pathology microscopic / adrenal gland / [other] + systemic / pathology microscopic / adrenal gland / vacuolization + systemic / …
# [37] = group: systemic, systemic / hematology / platelet / platelet + systemic / organ weight / adrenal gland / absolute + systemic / organ weight / testes / …
# [38] = group: systemic, systemic / pathology microscopic / adrenal gland / hypertrophy + systemic / pathology microscopic / adrenal gland / necrosis + systemic / …
# [39] = group: cholinesterase, cholinesterase / cholinesterase / cholinesterase / erythrocyte cholinesterase (che)
# [40] = group: offspring, systemic / organ weight / spleen / absolute + systemic / organ weight / spleen / relative to body weight
# [41] = group: parental, systemic / pathology microscopic / adrenal gland / vacuolization cytoplasmic + systemic / organ weight / adrenal gland / absolute + systemic…
# [42] = group: systemic, systemic / pathology microscopic / pituitary gland / adenoma + systemic / pathology microscopic / uterus / polyp stromal + systemic / …
# [43] = group: maternal, systemic / organ weight / placenta / absolute
# [44] = group: maternal, reproductive / reproductive performance / estrous cycle / abnormal + reproductive / reproductive performance / estrous cycle / absent …
# [45] = group: systemic, systemic / clinical chemistry / albumin / albumin + systemic / clinical chemistry / cholesterol / cholesterol + systemic / clinical …
# [46] = group: systemic, systemic / clinical chemistry / sodium / sodium + systemic / pathology microscopic / mammary gland / hyperplastic alveolar nodule + systemic…
# [47] = group: offspring, systemic / in life observation / body weight / offspring (pup) weight + developmental / offspring survival late / viability index / …
# [48] = group: parental, systemic / in life observation / body weight / body weight
# [49] = group: parental, systemic / in life observation / body weight / body weight + systemic / in life observation / food consumption / food consumption
# [50] = group: systemic, systemic / clinical chemistry / calcium / calcium + systemic / clinical chemistry / potassium / potassium + systemic / clinical chemistry / …
compound,measurement,setting,value
CN(C)CCCN1c2ccccc2Sc2ccc(Cl)cc21.Cl [Chlorpromazine hydrochloride],LOAEL,mouse [1]; [15],> 30 mg/kg/day
same,NEL,mouse [1]; [15],5 mg/kg/day
same,NOAEL,mouse [1]; [15],≥ 30 mg/kg/day
same,LEL,mouse [1]; [16],15 mg/kg/day
same,LOAEL,mouse [1]; [17],> 30 mg/kg/day
same,NEL,mouse [1]; [17],5 mg/kg/day
same,NOAEL,mouse [1]; [17],≥ 30 mg/kg/day
same,LEL,"mouse [1]; group: maternal, systemic / in life observation / body weight / body weight + systemic / in life observation / body weight / body weight gain",15 mg/kg/day
same,LOAEL,rat [2]; [18],> 100 mg/kg/day
same,NOAEL,rat [2]; [18],≥ 100 mg/kg/day
same,LEL,rat [2]; [19],12.5 mg/kg/day
same,NEL,rat [2]; [19],< 12.5 mg/kg/day
same,LEL,rat [2]; [20],12.5 mg/kg/day
same,NEL,rat [2]; [20],< 12.5 mg/kg/day
same,LOAEL,rat [2]; [21],> 100 mg/kg/day
same,NOAEL,rat [2]; [21],≥ 100 mg/kg/day
same,LEL,rat [2]; [22],12.5 mg/kg/day
same,NEL,rat [2]; [22],< 12.5 mg/kg/day
same,LOAEL,rat [2]; [23],> 100 mg/kg/day
same,NOAEL,rat [2]; [23],≥ 100 mg/kg/day
same,LOAEL,rat [3]; [18],> 100 mg/kg/day
same,NOAEL,rat [3]; [18],≥ 100 mg/kg/day
same,LEL,rat [3]; [24],12.5 mg/kg/day
same,NEL,rat [3]; [24],< 12.5 mg/kg/day
same,LOAEL,rat [3]; [25],> 100 mg/kg/day
same,NOAEL,rat [3]; [25],≥ 100 mg/kg/day
same,LEL,rat [3]; [26],12.5 mg/kg/day
same,NEL,rat [3]; [26],< 12.5 mg/kg/day
same,LEL,"rat [3]; group: reproductive, reproductive / reproductive performance / estrous cycle / length",25 mg/kg/day
same,LOAEL,rat [3]; [27],> 100 mg/kg/day
same,NEL,rat [3]; [27],12.5 mg/kg/day
same,NOAEL,rat [3]; [27],≥ 100 mg/kg/day
same,LEL,rat [4]; [16],5 mg/kg/day
same,LOAEL,rat [4]; [16],> 45 mg/kg/day
same,NEL,rat [4]; [16],< 5 mg/kg/day
same,NOAEL,rat [4]; [16],≥ 45 mg/kg/day
same,LOAEL,rat [4]; [17],> 45 mg/kg/day
same,NOAEL,rat [4]; [17],≥ 45 mg/kg/day
same,LEL,rat [4]; [28],5 mg/kg/day
same,NEL,rat [4]; [28],< 5 mg/kg/day
COP(=S)(OC)Oc1nc(Cl)c(Cl)cc1Cl [Chlorpyrifos-methyl],LEL,dog [5]; [29],0.1 mg/kg/day
same,NEL,dog [5]; [29],< 0.1 mg/kg/day
same,LOAEL,dog [5]; [30],10 mg/kg/day
same,NOAEL,dog [5]; [30],0.1 mg/kg/day
same,LEL,dog [5]; [31],50 mg/kg/day
same,LOAEL,dog [5]; [31],50 mg/kg/day
same,NEL,dog [5]; [31],10 mg/kg/day
same,NOAEL,dog [5]; [31],10 mg/kg/day
same,LEL,mouse [6]; [32],3.94 mg/kg/day
same,LOAEL,mouse [6]; [32],3.94 mg/kg/day
same,NEL,mouse [6]; [32],0.403 mg/kg/day
same,NOAEL,mouse [6]; [32],0.403 mg/kg/day
same,LOAEL,"mouse [6]; group: systemic, systemic / pathology microscopic / liver / fatty change",41.5 mg/kg/day
same,NOAEL,"mouse [6]; group: systemic, systemic / pathology microscopic / liver / fatty change + systemic / clinical chemistry / alkaline phosphatase (alp/alk) / alkaline …",3.94 mg/kg/day
same,LEL,mouse [6]; [33],0.0816 mg/kg/day
same,NEL,mouse [6]; [33],< 0.0816 mg/kg/day
same,LEL,rat [7]; [34],1 mg/kg/day
same,LOAEL,rat [7]; [34],1 mg/kg/day
same,NEL,rat [7]; [34],0.1 mg/kg/day
same,NOAEL,rat [7]; [34],0.1 mg/kg/day
same,LEL,rat [7]; [35],5 mg/kg/day
same,LOAEL,rat [7]; [35],5 mg/kg/day
same,NEL,rat [7]; [35],1 mg/kg/day
same,NOAEL,rat [7]; [35],1 mg/kg/day
same,NEL,"rat [7]; group: parental, systemic / pathology microscopic / adrenal gland / [other] + systemic / pathology microscopic / adrenal gland / vacuolization",1 mg/kg/day
same,LEL,rat [7]; [36],5 mg/kg/day
same,LOAEL,rat [7]; [36],> 5 mg/kg/day
same,NOAEL,rat [7]; [36],≥ 5 mg/kg/day
same,LEL,rat [8]; [29],0.1 mg/kg/day
same,LOAEL,rat [8]; [29],0.1 mg/kg/day
same,NEL,rat [8]; [29],< 0.1 mg/kg/day
same,NOAEL,rat [8]; [29],< 0.1 mg/kg/day
same,LEL,rat [8]; [37],0.1 mg/kg/day
same,NEL,rat [8]; [37],< 0.1 mg/kg/day
same,LOAEL,rat [8]; [38],10 mg/kg/day
same,NOAEL,rat [8]; [38],1 mg/kg/day
same,LEL,rat [9]; [39],1 mg/kg/day
same,LOAEL,rat [9]; [39],1 mg/kg/day
same,NEL,rat [9]; [39],< 1 mg/kg/day
same,NOAEL,rat [9]; [39],< 1 mg/kg/day
same,LEL,rat [9]; [40],10 mg/kg/day
same,LOAEL,rat [9]; [40],> 10 mg/kg/day
same,NEL,rat [9]; [40],3 mg/kg/day
same,NOAEL,rat [9]; [40],≥ 10 mg/kg/day
same,LOAEL,"rat [9]; group: parental, systemic / pathology microscopic / adrenal gland / vacuolization cytoplasmic",3 mg/kg/day
same,LEL,rat [9]; [41],3 mg/kg/day
same,NEL,rat [9]; [41],1 mg/kg/day
same,NOAEL,rat [9]; [41],1 mg/kg/day
same,LEL,rat [10]; [39],0.1 mg/kg/day
same,LOAEL,rat [10]; [34],1 mg/kg/day
same,NEL,rat [10]; [34],0.05 mg/kg/day
same,NOAEL,rat [10]; [34],0.1 mg/kg/day
same,LEL,"rat [10]; group: systemic, systemic / pathology microscopic / pituitary gland / adenoma",0.1 mg/kg/day
same,LOAEL,"rat [10]; group: systemic, systemic / pathology microscopic / pituitary gland / adenoma + systemic / pathology microscopic / adrenal gland / vacuolization",1 mg/kg/day
same,NEL,rat [10]; [42],0.05 mg/kg/day
same,NOAEL,rat [10]; [42],0.1 mg/kg/day
O=C1CCCO1 [4-Butyrolactone],LEL,rat [11]; [16],50 mg/kg/day
same,LOAEL,rat [11]; [16],> 500 mg/kg/day
same,NEL,rat [11]; [16],10 mg/kg/day
same,NOAEL,rat [11]; [16],≥ 500 mg/kg/day
same,LEL,rat [11]; [43],10 mg/kg/day
same,LOAEL,rat [11]; [43],> 500 mg/kg/day
same,NEL,rat [11]; [43],< 10 mg/kg/day
same,NOAEL,rat [11]; [43],≥ 500 mg/kg/day
CS(=O)(=O)O.Cc1cc(CCN2CCN(c3nsc4ccccc34)CC2)cc2c1NC(=O)CC2(C)C,LEL,rat [12]; [44],10 mg/kg/day
same,LOAEL,rat [12]; [44],> 60 mg/kg/day
same,NEL,rat [12]; [44],< 10 mg/kg/day
same,NOAEL,rat [12]; [44],≥ 60 mg/kg/day
same,LOAEL,rat [12]; [45],> 60 mg/kg/day
same,NOAEL,rat [12]; [45],≥ 60 mg/kg/day
same,LEL,rat [12]; [46],10 mg/kg/day
same,NEL,rat [12]; [46],< 10 mg/kg/day
CNC(=O)Oc1cccc2c1OC(C)(C)C2 [Carbofuran],NEL,rat [13]; [19],1 mg/kg/day
same,NOAEL,rat [13]; [19],1 mg/kg/day
same,LEL,rat [13]; [47],5 mg/kg/day
same,LOAEL,rat [13]; [47],5 mg/kg/day
same,LEL,rat [13]; [48],1 mg/kg/day
same,NEL,rat [13]; [48],< 1 mg/kg/day
same,LOAEL,rat [13]; [49],5 mg/kg/day
same,NOAEL,rat [13]; [49],1 mg/kg/day
same,LEL,dog [14]; [29],0.5 mg/kg/day
same,LOAEL,dog [14]; [29],0.5 mg/kg/day
same,NEL,dog [14]; [29],0.25 mg/kg/day
same,NOAEL,dog [14]; [29],0.25 mg/kg/day
same,LEL,dog [14]; [50],12.5 mg/kg/day
same,LOAEL,dog [14]; [50],> 12.5 mg/kg/day
same,NEL,dog [14]; [50],0.5 mg/kg/day
same,NOAEL,dog [14]; [50],≥ 12.5 mg/kg/day
